Results as given in patent publication US20160312292A1, “METHODS FOR TREATING HEMATOLOGICAL CANCERS AND THE USE OF BIOMARKERS AS A PREDICTOR OF CLINICAL SENSITIVITY TO IMMUNODULATORY THERAPIES” (CELGENE CORPORATION, priority 2013, published 2016).
“And” between values parts separate entries of the source, which are not always exact repeats. Equal values may be shown once.

Test system: refractory or relapsed diffuse large B-Cell lymphoma (DLBCL) patients
Assay: Clinical trial of lenalidomide in refractory or relapsed DLBCL patients: best response, PFS, OS
Assay type: in vivo, human
Excerpt: A clinical trial was formed with four arms, each arm containing 25 patients. One arm contained patients classified as presenting germinal center B-cell-like DLBCL subtypes receiving lenalidomide, a second arm contained patients classified as presenting germinal center B-cell-like DLBCL subtypes receiving another therapy selected by the investigator, a third arm contained patients classified as presenting activated B-cell-like DLBCL subtypes receiving lenalidomide, and a fourth arm contained patients classified as presenting activated B-cell-like DLBCL subtypes receiving another therapy selected by the investigator. The patients in the four arms of the clinical trial received treatment until disease progression.
For purposes of this exploratory analysis, a subset of the clinical data associated to each patient comprised the therapy arm, Revlimid (REV) or control drug (CON), and their corresponding response to the drug in both categorical variable {complete response (CR), partial response (PR), establish disease (SD), progression disease (PD) and Death} and continuous variables as progression free survival (PFS) and overall (OS), unit weeks. It also includes the predicted DLBCL sub-type (ABC/GCB) and other demographic data. […]

Nc1cccc2c1CN(C1CCC(=O)NC1=O)C2=O (centres unmarked) [lenalidomide, 3-(4-amino-1-oxo-1,3-dihydro-isoindol-2-yl)-piperidine-2,6-dione]
progression free survival (PFS) (individual Revlimid-arm DLBCL patients whose baseline FF profile had a non-zero estimated proportion of NK-cells): 27 weeks and 31.9 weeks and 32.4 weeks and 85.3 weeks | progression free survival (PFS) (one lenalidomide-treated DLBCL patient with low B aIgM proportion who died shortly after starting treatment): < 3 weeks
